{"source": "ChEMBL document CHEMBL1201862", "about": "“PubChem BioAssay data set” (2004)", "key": {"Insulin-degrading enzyme [1]": {"biological_target": "T1, Insulin-degrading enzyme (Homo sapiens, UniProt P14735)", "T1 sequence (P14735 whole entry)": "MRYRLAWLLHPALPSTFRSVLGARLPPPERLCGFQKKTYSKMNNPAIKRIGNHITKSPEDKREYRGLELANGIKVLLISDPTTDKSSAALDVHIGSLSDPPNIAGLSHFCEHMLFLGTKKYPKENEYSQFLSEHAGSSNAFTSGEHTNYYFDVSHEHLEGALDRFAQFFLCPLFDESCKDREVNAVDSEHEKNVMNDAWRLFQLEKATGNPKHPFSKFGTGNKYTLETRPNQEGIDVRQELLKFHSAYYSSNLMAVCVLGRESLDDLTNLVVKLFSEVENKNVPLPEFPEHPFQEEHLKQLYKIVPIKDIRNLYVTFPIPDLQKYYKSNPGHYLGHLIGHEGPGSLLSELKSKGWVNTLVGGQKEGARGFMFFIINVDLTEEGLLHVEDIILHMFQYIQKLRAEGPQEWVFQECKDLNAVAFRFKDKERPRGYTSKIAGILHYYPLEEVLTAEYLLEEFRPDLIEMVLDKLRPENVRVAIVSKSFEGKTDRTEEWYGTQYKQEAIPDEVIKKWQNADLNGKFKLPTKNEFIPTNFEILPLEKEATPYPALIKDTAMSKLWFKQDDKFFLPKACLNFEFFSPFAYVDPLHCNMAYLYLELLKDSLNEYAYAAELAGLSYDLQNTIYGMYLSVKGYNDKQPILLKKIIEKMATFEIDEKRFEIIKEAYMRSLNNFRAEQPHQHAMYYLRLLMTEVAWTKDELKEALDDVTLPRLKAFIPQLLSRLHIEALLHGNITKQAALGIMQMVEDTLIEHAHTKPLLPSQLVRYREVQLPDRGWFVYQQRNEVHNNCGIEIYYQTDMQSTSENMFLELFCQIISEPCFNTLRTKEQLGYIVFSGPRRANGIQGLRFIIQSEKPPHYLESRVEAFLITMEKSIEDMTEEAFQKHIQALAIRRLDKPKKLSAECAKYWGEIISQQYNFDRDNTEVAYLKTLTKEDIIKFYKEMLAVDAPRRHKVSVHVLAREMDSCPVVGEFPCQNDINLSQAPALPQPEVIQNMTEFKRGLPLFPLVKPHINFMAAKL", "assay": "cellular IDE activation of Abeta substrate cleavage – fluorescence polarization, HEK cells, dose response (AID 588439)", "format": "functional, cell-based"}, "HEK293 [2]": {"test_system": "HEK293", "assay": "optical interference in Abeta FP readout, dose response, artefact control for IDE activator project, biochemical, fluorescence polarization (AID 588442)", "format": "functional, cell-based", "conditions": "Homo sapiens"}, "Insulin-degrading enzyme [3]": {"biological_target": "T1, Insulin-degrading enzyme", "assay": "recombinant IDE activation, cell-free – biochemical, fluorescence polarization, counter-screen for IDE activator project, dose response (AID 588681)"}, "HEK293 [4]": {"test_system": "HEK293", "assay": "membrane integrity loss in HEK cells – cell-based, fluorescence, cytotoxicity control for IDE activator project, dose response (AID 588440);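 note: cytotoxicity by LDH release measuring loss of membrane integrity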", "format": "functional", "conditions": "Homo sapiens"}, "[5]": {"assay": "Vero cell cytotoxicity, cytotoxicity control for M. tuberculosis inhibitor project, purified and synthesized samples, set 3 (AID 504684)", "format": "functional", "conditions": "[…]"}, "[6]": {"assay": "THP-1 cell cytotoxicity, dose response, cytotoxicity control, set 3 (AID 504852)", "format": "functional", "conditions": "Mycobacterium tuberculosis"}, "[7]": {"biological_target": "DNA dC->dU-editing enzyme APOBEC-3A (Homo sapiens, UniProt P31941)", "sequence (P31941 whole entry)": "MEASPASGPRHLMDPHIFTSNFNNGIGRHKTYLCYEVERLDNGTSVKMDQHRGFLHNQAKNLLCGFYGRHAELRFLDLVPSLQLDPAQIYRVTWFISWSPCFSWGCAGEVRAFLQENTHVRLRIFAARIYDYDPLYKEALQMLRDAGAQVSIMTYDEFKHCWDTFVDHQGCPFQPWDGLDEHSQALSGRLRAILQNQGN", "assay": "SAR analysis of small molecule inhibitors of APOBEC3A DNA Deaminase via a fluorescence-based single-stranded DNA deaminase assay.", "format": "functional", "conditions": "read-out: IC50_Mean"}, "[8]": {"biological_target": "DNA dC->dU-editing enzyme APOBEC-3G (Homo sapiens, UniProt Q9HC16)", "sequence (Q9HC16 whole entry)": "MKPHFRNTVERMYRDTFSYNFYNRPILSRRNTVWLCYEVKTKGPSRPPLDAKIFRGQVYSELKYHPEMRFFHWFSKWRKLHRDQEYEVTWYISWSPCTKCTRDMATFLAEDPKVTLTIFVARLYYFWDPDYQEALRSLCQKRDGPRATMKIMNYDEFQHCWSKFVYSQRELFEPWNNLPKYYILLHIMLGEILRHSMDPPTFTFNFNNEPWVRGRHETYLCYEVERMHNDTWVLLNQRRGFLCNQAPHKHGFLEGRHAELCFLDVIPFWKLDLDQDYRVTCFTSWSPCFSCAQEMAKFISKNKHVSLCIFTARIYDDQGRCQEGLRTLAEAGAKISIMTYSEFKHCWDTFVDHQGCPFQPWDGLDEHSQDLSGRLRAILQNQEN", "assay": "inhibition of APOBEC3G ssDNA deamination – biochemical, fluorescence, single-stranded DNA substrate, SAR follow-up (AID 602136)", "format": "functional", "conditions": "read-out: IC50_Mean"}, "[9]": {"assay": "SAR analysis of small molecule inhibitors of Apaf-1 using a LZ-Caspase-9/Caspase-3 Fluorescent Selectivity assay - Set 2.", "format": "functional", "conditions": "read-out: IC50_Mean"}, "[10]": {"biological_target": "T2, Apoptotic protease-activating factor 1 (Homo sapiens, UniProt O14727)", "T2 sequence (O14727 whole entry)": "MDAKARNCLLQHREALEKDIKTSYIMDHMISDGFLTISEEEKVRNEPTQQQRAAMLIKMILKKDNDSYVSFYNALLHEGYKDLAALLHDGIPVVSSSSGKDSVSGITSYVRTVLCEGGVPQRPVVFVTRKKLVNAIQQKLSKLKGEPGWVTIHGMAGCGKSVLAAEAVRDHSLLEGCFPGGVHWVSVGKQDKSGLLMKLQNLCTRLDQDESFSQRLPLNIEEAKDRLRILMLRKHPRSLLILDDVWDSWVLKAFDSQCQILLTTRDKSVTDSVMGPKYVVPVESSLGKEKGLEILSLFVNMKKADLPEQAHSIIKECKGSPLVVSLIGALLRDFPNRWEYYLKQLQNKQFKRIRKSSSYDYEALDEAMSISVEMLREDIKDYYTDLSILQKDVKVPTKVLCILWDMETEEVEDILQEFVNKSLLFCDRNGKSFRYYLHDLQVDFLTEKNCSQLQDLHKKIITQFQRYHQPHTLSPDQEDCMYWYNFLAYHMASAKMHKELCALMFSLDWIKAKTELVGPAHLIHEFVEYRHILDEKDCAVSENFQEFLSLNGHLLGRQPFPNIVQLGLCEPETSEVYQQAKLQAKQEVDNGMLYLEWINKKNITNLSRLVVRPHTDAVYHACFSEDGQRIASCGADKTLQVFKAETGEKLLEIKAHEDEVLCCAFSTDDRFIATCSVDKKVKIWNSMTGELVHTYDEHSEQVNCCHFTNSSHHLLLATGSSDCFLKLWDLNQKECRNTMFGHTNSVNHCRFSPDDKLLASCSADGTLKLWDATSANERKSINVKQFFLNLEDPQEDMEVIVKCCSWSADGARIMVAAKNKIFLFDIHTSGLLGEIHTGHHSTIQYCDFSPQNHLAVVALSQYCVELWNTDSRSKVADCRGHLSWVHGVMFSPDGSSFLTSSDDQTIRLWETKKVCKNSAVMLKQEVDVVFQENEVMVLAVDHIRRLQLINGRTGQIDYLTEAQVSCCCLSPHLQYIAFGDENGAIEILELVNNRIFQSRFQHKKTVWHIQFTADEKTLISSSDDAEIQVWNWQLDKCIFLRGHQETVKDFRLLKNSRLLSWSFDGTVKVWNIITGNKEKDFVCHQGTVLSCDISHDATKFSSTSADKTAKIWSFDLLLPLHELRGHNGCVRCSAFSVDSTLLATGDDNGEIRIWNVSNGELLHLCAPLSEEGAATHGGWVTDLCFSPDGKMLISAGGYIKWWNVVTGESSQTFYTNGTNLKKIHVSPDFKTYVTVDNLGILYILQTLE", "assay": "SAR analysis of small molecule Inhibitors of Apaf-1 in a Fluorescent assay - set 2.", "format": "functional", "conditions": "read-out: IC50_Mean"}, "[11]": {"biological_target": "Serine/threonine-protein kinase Chk1 (Homo sapiens, UniProt O14757)", "sequence (O14757 whole entry)": "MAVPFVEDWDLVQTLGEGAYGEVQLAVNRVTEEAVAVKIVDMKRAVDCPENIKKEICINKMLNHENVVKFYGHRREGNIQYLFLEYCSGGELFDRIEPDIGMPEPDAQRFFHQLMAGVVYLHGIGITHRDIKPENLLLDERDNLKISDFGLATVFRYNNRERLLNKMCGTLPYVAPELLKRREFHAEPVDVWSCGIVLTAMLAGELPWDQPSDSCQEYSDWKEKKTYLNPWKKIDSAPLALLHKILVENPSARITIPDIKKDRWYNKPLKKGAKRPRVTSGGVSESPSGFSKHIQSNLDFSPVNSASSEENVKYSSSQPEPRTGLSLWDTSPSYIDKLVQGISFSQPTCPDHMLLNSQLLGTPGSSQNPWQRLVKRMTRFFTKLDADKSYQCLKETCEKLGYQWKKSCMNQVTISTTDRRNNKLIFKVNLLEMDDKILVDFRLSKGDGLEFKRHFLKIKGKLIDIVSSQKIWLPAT", "format": "functional"}, "[12]": {"biological_target": "Dual specificity mitogen-activated protein kinase kinase 1 (Homo sapiens, UniProt Q02750)", "sequence (Q02750 whole entry)": "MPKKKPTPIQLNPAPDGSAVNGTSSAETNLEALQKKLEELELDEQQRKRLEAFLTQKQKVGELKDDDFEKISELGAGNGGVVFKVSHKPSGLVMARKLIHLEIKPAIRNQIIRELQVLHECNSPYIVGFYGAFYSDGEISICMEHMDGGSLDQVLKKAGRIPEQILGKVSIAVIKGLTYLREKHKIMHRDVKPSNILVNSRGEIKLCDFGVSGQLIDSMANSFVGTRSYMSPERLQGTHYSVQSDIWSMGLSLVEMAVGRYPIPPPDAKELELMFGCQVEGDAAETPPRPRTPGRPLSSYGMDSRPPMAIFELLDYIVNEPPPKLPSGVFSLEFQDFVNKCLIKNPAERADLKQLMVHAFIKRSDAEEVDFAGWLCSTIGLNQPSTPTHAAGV", "assay": "Navigating the Kinome. Panel member name: MAP2K1", "format": "functional"}}, "note": "Activity calls are given as the source filed them."}
{"compound": "O=C(O)c1ccccc1NC(=O)C1CCN(S(=O)(=O)c2cccc3nsnc23)CC1", "values": [{"measurement": "EC50", "setting": "Insulin-degrading enzyme [1]", "result": "> 18.2 µM (inactive)"}, {"measurement": "EC50", "setting": "HEK293 [2]", "result": "2.44 µM (active)"}, {"measurement": "EC50", "setting": "Insulin-degrading enzyme [3]", "result": "> 54.7 µM (inactive)"}, {"measurement": "IC50", "setting": "HEK293 [4]", "result": "> 89.2 µM (inactive)"}]}
{"compound": "COC(=O)c1ccc(CNc2c(N3CCCC3)c(=O)c2=O)cc1", "values": [{"measurement": "CC50", "setting": "[5]", "result": "> 100 µM (active)"}, {"measurement": "CC50", "setting": "[6]", "result": "> 100 µM (active)"}]}
{"compound": "CN1CC2=C(N=C1NCCCO)c1ccccc1CC21CCCCC1", "values": [{"measurement": "IC50", "setting": "[7]", "result": "> 99 µM (inactive)"}, {"measurement": "IC50", "setting": "[8]", "result": "> 99 µM (inactive)"}]}
{"compound": "Cc1cc(C)c2c(c1)N(Cc1ccc(Cl)c(Cl)c1)C(=O)C2=O", "values": [{"measurement": "IC50", "setting": "[9]", "result": "20.1 µM (active)"}, {"measurement": "IC50", "setting": "[10]", "result": "42 µM (active)"}]}
{"compound": "CN(C)Cc1ccc2c(c1)NC(=O)C1CCCN21", "note": "(configuration not stated)", "values": [{"measurement": "Ki", "setting": "[11]", "result": "1.58 µM (active)"}, {"measurement": "Ki", "setting": "[12]", "result": "3.16 µM (active)"}]}
